Measured values taken from patent US20220274947A1, “NOVEL HETEROARYL-TRIAZOLE COMPOUNDS AS PESTICIDES” (Bayer Aktiengesellschaft, priority 2019, published 2022).

Assays:
Format in all cases: in vivo
Rhipicephalus microplus [1] = assay: Rhipicephalus (Boophilus) microplus injection test (BOOPMI Inj); conditions: 168 h, injection into adult engorged female ticks, egg deposition after 7 days, read-out: activity (efficacy: 100% means all eggs are infertile); for pest or weed control at 0.004 mg: application rate 4 μg/tick; for pest or weed control at 0.02 mg: application rate 20 μg/tick
Procedure, shortened: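 Five engorged adult female R. microplus ticks injected into the abdomen with 1 μL of compound diluted in DMSO, then kept in a climate chamber. Fertile egg deposition checked after 7 days; eggs without visible fertility held until hatching at about 42 days. Efficacy: 100% = all eggs infertile, 0% = all fertile.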

Rhipicephalus microplus [2] = assay: Rhipicephalus (Boophilus) microplus in-vitro contact test, larval cattle tick, strain Parkhurst (BOOPMI Cont); conditions: application rate 5 μg/cm^2 (=500 g/ha), tick larvae, after 48 hours, read-out: activity (efficacy: 100% means all larvae are dead or moribund)
Procedure, shortened: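 Acetone solutions dried onto glass tube walls (900 ppm giving 5 μg/cm^2); 20-50 pyrethroid-resistant Parkhurst larvae added per tube and held 48 h at 27° C., 85% relative humidity. Efficacy scored by negative geotaxis as % dead or moribund larvae.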

Ctenocephalides felis = Ctenocephalides felis in-vitro contact test, adult cat flea (CTECFE Cont); conditions: application rate 5 μg/cm^2 (=500 g/ha), adult cat fleas, after 48 hours, read-out: activity (efficacy: 100% means all fleas are dead or moribund)
Procedure, shortened: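 Acetone solutions coated on glass tube inner walls (900 ppm giving 5 μg/cm^2), then 5-10 adult fleas added and held 48 h at room temperature. Fleas unable to escape a 45-50° C. heating plate within 5 min scored dead or moribund; efficacy = % dead/moribund.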

Diabrotica balteata = Diabrotica balteata spray test; conditions: 168 h, wheat seeds, larvae, after 7 days, read-out: activity (efficacy: 100% means all seedlings have grown up like in the untreated, uninfected control); for pest or weed control at 32 µg/disc, 100 g/ha: application rate 100 g/ha (=32 μg/well); for pest or weed control at 160 µg/disc, 500 g/ha: application rate 500 g/ha (=160 μg/well)
Procedure, shortened: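 Wheat seedlings, germinated 1 day on agar, were sprayed with compound in acetone/DMF diluted in water containing emulsifier, then infested with 10-20 Diabrotica balteata larvae. After 7 days efficacy in % was scored: 100% means seedlings grew like the untreated, uninfected control; 0% means none grew.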

Myzus persicae = Myzus persicae spray test; conditions: in Brassica rapa, foliar, 120 h; for mortality at 500 g/ha: read-out: activity (mortality), application rate 500 g/ha, spray, Chinese cabbage leaf disks, after 5 days; for mortality at 100 g/ha: read-out: activity (mortality), application rate 100 g/ha, spray, Chinese cabbage leaf disks, after 5 days
Procedure, shortened: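 Compound in acetone/DMF solvent diluted in water with 1000 ppm alkylarylpolyglycol ether emulsifier, sprayed onto Chinese cabbage leaf disks infested with all instars of Myzus persicae. Mortality (%) scored after 5 days.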

Nezara viridula = Nezara viridula spray test; conditions: in Hordeum vulgare, 96 h, barley plants, larvae, after 4 days; for mortality at 100 g/ha: application rate 100 g/ha; for mortality at 500 g/ha: application rate 500 g/ha
Procedure, shortened: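 Barley plants infested with N. viridula larvae were sprayed with compound in acetone/DMF diluted with water containing 1000 ppm alkylarylpolyglycol ether emulsifier. Mortality (%) was scored after 4 days; 100% means all bugs killed, 0% none.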

Spodoptera frugiperda = Spodoptera frugiperda spray test; conditions: in Zea mays, 168 h, read-out: activity (mortality)
Procedure, shortened: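 Maize leaf sections were sprayed with compound formulated in acetone/DMF and diluted in water containing 1000 ppm emulsifier. Dried leaves were infested with fall armyworm larvae, and percent mortality was scored after 7 days.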

SMILES | pest or weed control at 0.004 mg (Rhipicephalus microplus [1]) [%] | pest or weed control at 0.02 mg (Rhipicephalus microplus [1]) [%] | pest or weed control at 5 µg/cm2 (Rhipicephalus microplus [2]) [%] | pest or weed control at 5 µg/cm2 (Ctenocephalides felis) [%] | pest or weed control at 32 µg/disc, 100 g/ha (Diabrotica balteata) [%] | pest or weed control at 160 µg/disc, 500 g/ha (Diabrotica balteata) [%] | mortality at 500 g/ha (Myzus persicae) [%] | mortality at 100 g/ha (Nezara viridula) [%] | mortality at 500 g/ha (Nezara viridula) [%] | mortality at 100 g/ha (Spodoptera frugiperda) [%] | mortality at 500 g/ha (Spodoptera frugiperda) [%] | mortality at 100 g/ha (Myzus persicae) [%]
C[C@H](NC(=O)c1cc(Cl)nc(C(F)(F)F)c1)c1ncnn1-c1ccc(C#N)cn1 [II-5] | 100 | 100 | 100 | 100 | 100 | 100 | 90 | 90 | 100 | 100 | 100 | –
C[C@H](NC(=O)c1cc(Cl)cc(OC(F)(F)F)c1)c1ncnn1-c1cc(N)ccn1 [II-7] | 100 | 100 | – | 90 | 100 | 100 | 100 | – | 90 | – | 100 | –
C[C@H](NC(=O)c1ccnc(C(F)(F)F)n1)c1ncnn1-c1ccc(C#N)cn1 [II-8] | 100 | 100 | 100 | 90 | 100 | 100 | 90 | 100 | 100 | – | 100 | –
C[C@H](NC(=O)c1cc(Cl)cc(C(F)F)c1)c1ncnn1-c1ccc(C#N)cn1 [II-12] | 100 | 100 | 100 | 100 | 100 | 100 | 90 | 100 | 100 | 100 | 100 | 90
C[C@H](NC(=O)c1cc(Cl)cc(OC(F)(F)F)c1)c1ncnn1-c1ncc(Cl)s1 [II-16] | 100 | 100 | 100 | 100 | 100 | 100 | – | 90 | 100 | 100 | – | 90
CCN(C)C(=O)c1ccc(-n2ncnc2[C@H](C)NC(=O)c2cc(Cl)cc(C(F)(F)F)c2)nc1 [II-27] | 100 | 100 | 100 | 100 | – | 100 | 90 | – | 100 | 83 | 83 | –
CCN(C(=O)c1ccc(-n2ncnc2[C@H](C)NC(=O)c2cc(Cl)cc(C(F)(F)F)c2)nc1)C1CC1 [II-31] | 100 | 100 | 100 | 100 | 100 | 100 | 100 | – | 90 | 100 | 100 | 100
Cc1nc([C@H](C)NC(=O)c2cc(Br)cc(C(F)(F)F)c2)n(-c2ccc(C#N)cn2)n1 [II-32] | 80 | 100 | 100 | 100 | 100 | 100 | 90 | 100 | 100 | 100 | 100 | 100
CC(=O)Nc1ccnc(-n2ncnc2[C@H](C)NC(=O)c2cc(Cl)cc(C(F)(F)F)c2)c1 [II-36] | 100 | 100 | 100 | 80 | – | – | 90 | – | 90 | 100 | 100 | –
C[C@H](NC(=O)c1cc(C(F)(F)F)cc(C(F)(F)F)c1)c1ncnn1-c1ccc(C(=O)NC2CC2)cn1 [II-37] | 100 | 100 | 100 | 100 | 100 | 100 | 100 | 90 | 100 | 100 | 100 | –
C[C@H](NC(=O)c1cc(C(F)(F)F)cc(C(F)(F)F)c1)c1ncnn1-c1ccc(C(=O)N(C)C2CC2)cn1 [II-38, 6-(5-{(1S)-1-[3,5-bis(trifluoromethyl)benzamido]ethyl}-1H-1,2,4-triazol-1-yl)-N-cyclopropyl-N-methylnicotinamide] | 100 | 100 | 100 | 100 | 100 | 100 | 100 | 100 | 100 | 100 | 100 | 100
C[C@H](NC(=O)c1cc(C(F)(F)F)cc(C(F)(F)F)c1)c1ncnn1-c1ncc(Cl)s1 [II-40] | 100 | 100 | 100 | 100 | 100 | 100 | 100 | 100 | 100 | 100 | 100 | –
Cc1nc([C@H](C)NC(=O)c2cc(Br)cc(OC(F)(F)F)c2)n(-c2ccc(C#N)cn2)n1 [II-47] | 100 | 100 | 100 | 100 | 100 | – | – | 100 | 100 | 100 | – | 100
Cc1nc([C@H](C)NC(=O)c2cc(C#N)cc(C(F)(F)F)c2)n(-c2ccc(C#N)cn2)n1 [II-53] | 100 | 100 | 100 | 100 | 100 | – | – | 90 | – | 100 | – | 100
C[C@H](NC(=O)c1cc(Cl)cc(C#N)c1)c1ncnn1-c1ccc(C#N)cn1 [II-57] | 100 | 100 | 100 | 100 | – | – | – | 100 | – | 100 | – | 90
Cc1nc([C@H](C)NC(=O)c2cncc(C(F)(F)F)c2)n(-c2ccc(C#N)cn2)n1 [II-63] | 100 | 100 | 100 | 100 | 100 | – | – | 100 | – | – | – | 100
Cc1nc([C@H](C)NC(=O)c2cc(C(F)(F)F)cc(C(F)(F)F)c2)n(-c2ccc(C(=O)N(C)CC#N)cn2)n1 [II-99] | 100 | – | 100 | 100 | 100 | – | – | 100 | – | – | – | 90
